Test results: patent US20090142364A1, “Method for finding novel peptide immunostimulatory adjuvants, compositions and methods of use” (priority 2007, published 2009)
Entries after “also recorded” stand apart in the source; their conditions may differ. Where a SMILES comes first, the peptide text is derived from it.

Legend:
[1] = tested on: E6/1.2 mAb; test: Solid-phase ELISA of TentaGel-bound synthesized peptide with E6/1.2 mAb; format: binding, mouse
Protocol: Different biological activities are characteristic of GMDP, including adjuvant activity, induction of non-specific resistance to infections, and the ability to induce Ia-antigen expression on murine macrophages (Khaidukov S. V. 1995). In order to evaluate the biological properties, we produced RN-peptide by solid-phase synthesis by Fmoc strategy. Two types of polymers were used, namely standard Wang's resin and TentaGel (Rapp Polymere, Germany). The synthesis carried out on Wang's resin yielded, after removal of protective groups, the free peptide which was used in biological studies after standard chromatographic purification. When hydrophilic TentaGel was used as solid support, the peptide remained bound to polymer after removal of protective groups enabling evaluation of its binding to E6/1.2 mAb by solid-phase ELISA.
Peptide synthesis. All peptides were synthesized manually by the Fmoc/t-Bu technique. Wang Resin (Bachem, Switzerland) was loaded with Fmoc-Asn(Trt)-OH via diisopropylcarbodiimide-4-dimethylaminopyridine (DIC-DMAP) procedure (Heinzelmann et al. 2000). […] Coupling efficiency during polypeptide chain assembly was routinely monitored by Kaiser ninhydrine test and in case of incomplete reactions extra couplings were carried out. […]

[2] = tested on: antibody response to ovalbumin; test: Adjuvant activity: antibody response to ovalbumin in mice, titer by solid-phase ELISA; format: in vivo, Balb/c mice; conditions: for Adjuvant index / Anti-ovalbumin antibody titer: i.p.
Protocol: To study the adjuvant activity of RN-peptide, Balb/c mice were immunized with ovalbumin in saline in the presence of the RN-peptide, its analogs or GMDP, or without any adjuvant (control). The adjuvant was introduced on first immunization, whereas second immunization was carried out with half dose of OVA without adjuvant.
Adjuvant activity. Groups of 5 Balb/c mice were administered i.p. with 2.5-10 μg ovalbumin (Sigma, USA) per mouse in 200 μl PBS. RN-peptide (0.1-100 μg) or GMDP (1-100 μg) was introduced simultaneously with ovalbumin on first immunization. The second immunization was carried out 28 days later with half dose of ovalbumin (1.25-5.0 μg/200 μl) without adjuvant. Control mice received ovalbumin twice without adjuvant. Three days after the second immunization mice were bled from the tail vein. […] Control mice received polysaccharide without any adjuvant. Five and ten days after immunization mice were bled.
The antibody titer was evaluated by solid-phase ELISA as described by Douillard and Hoffman (1983) Enzyme-linked immunosorbent assay for screening monoclonal antibody production using enzyme-labeled second antibody. The antigen (ovalbumin or polysaccharide), 5 μg/ml in bicarbonate buffer, pH 8.6 (100 μl), was introduced into wells of 96-well microtiter plate. Incubation was carried out overnight at 4° C. The plate was washed 5 times with PBS and 5 times with PBS/0.1% Tween-20 (PBS-T). Remaining binding sites were blocked with 1% gelatin in PBS (2 h, room temperature). After washing 100 μl of mouse serum (1:100 dilution) was added, and serial three-fold dilutions were made. Bound antibodies were visualized by incubation with Horse-Radish-Peroxidase (HRP)-conjugated rabbit anti-mouse antibodies and OPD as the chromogenic substrate.

[3] = tested on: antibody response to N. meningitidis serogroup C capsular polysaccharide; test: Antibody response to N. meningitidis serogroup C capsular polysaccharide, passive agglutination test; format: in vivo, CBA mice; conditions: 0.2 μg capsular polysaccharide i.v.
Protocol: Immunization with capsular polysaccharide of N. meningitidis serogroup C was carried out in CBA mice. Groups of 5 mice were administered i.v. with polysaccharide C (0.2 μg) in saline in the presence of 1-100 μg of RN-peptide. Control mice were immunized with optimal dose (2 μg/mouse) of polysaccharide. Four days later mice were bled from tail vein and the antibody titer was evaluated by passive agglutination test using commercial erythrocyte diagnostic kit.

[4] = tested on: Balb/c mice peritoneal mononuclear cells (PMC); test: Ia-antigen-inducing effect, flow cytometry, peritoneal mononuclear cells; format: cell-based, mouse; conditions: at optimal dose, overnight treatment
Protocol: We studied the Ia-antigen-inducing activity of RN-peptide by stimulation in vitro of murine peritoneal macrophages. Flow cytometry was used to assess Ia-antigen expression. […] The pyrogenicity of the peptide was studied in Wistar rats. […] The dynamics of alteration of rectal temperature were monitored during 2.5 h.
Balb/c mice peritoneal mononuclear cells (PMC) were isolated by Histopaque density gradient centrifugation. PMC or WEHI-3 cells were incubated with RN-peptide (0.1-10 μg/ml) or GMDP (positive control) or saline (negative control) in RPMI 1640 medium, supplemented with 5% fetal calf serum upon rotary mixing for 18 h at 37° C. Cells were stained on ice bath with MKD6 anti-Ia^d mAb (supernatant from the in vitro culture, 1:10 dilution) and FITC-labeled anti-mouse immunoglobulin (Sigma, USA, 1:300 dilution), and then with phycoerythrin-labeled F4/80 mAb (Caltag, USA, 0.2 μg/100 μl). Ia antigen expression was assessed by flow cytometry using EPICS “Elite” (Coulter, USA).

[5] = tested on: E. coli strain K12; test: Anti-infective action: survival of Balb/c mice infected with E. coli strain K12; format: in vivo; conditions: 1 ng-10 μg i.p. 7 days before infection, LD100 and LD50
Protocol: Groups of Balb/c mice (20-22 g) were administered i.p. with different doses of RN-peptide (1 ng-10 μg) or GMDP (1 ng-10 μg) in saline. Control mice received saline. […] Survival of mice was assessed during three days.

[6] = adjuvant 0.1 μg, ovalbumin 2.5 μg then 1.25 μg
[7] = adjuvant 1 μg, ovalbumin 2.5 μg then 1.25 μg
[8] = adjuvant 1 μg, ovalbumin 10 μg then 5 μg
[9] = adjuvant 10 μg, ovalbumin 2.5 μg then 1.25 μg
[10] = adjuvant 10 μg, ovalbumin 10 μg then 5 μg
[11] = adjuvant 100 μg, ovalbumin 2.5 μg then 1.25 μg
[12] = adjuvant 100 μg, ovalbumin 10 μg then 5 μg

Question: What does the source list for CC[C@H](C)[C@H](NC(=O)[C@H](CCCCN)NC(=O)[C@H](C)NC(=O)[C@H](Cc1c[nH]cn1)NC(=O)[C@H](Cc1ccc(O)cc1)NC(=O)[C@H](CCCNC(=N)N)NC(=O)[C@@H]1CCCN1C(=O)[C@@H]1CCCN1C(=O)[C@@H](NC(=O)[C@@H](N)CCCNC(=N)N)C(C)C)C(=O)N[C@@H](CO)C(=O)N1CCC[C@H]1C(=O)N[C@@H](CCSC)C(=O)N[C@H](C(=O)N[C@@H](CC(N)=O)C(=O)O)C(C)C [RN-peptide, RVPPRYHAKISPMVN] (H-RVPPRYHAKISPMVN-OH)?
Answer: binding to GMDP-specific mAb [1]: retained the ability; adjuvant dose of highest response ([2]; 2.5 μg OVA): 10 µg; anti-ovalbumin antibody titer (in words) ([2]; 100 μg/mouse): diminished; Adjuvant index [2, 6]: 0.92 ± 0.04; Anti-ovalbumin antibody titer [2, 6]: 2250 ± 100; Adjuvant index [2, 7]: 1.75 ± 0.06; Anti-ovalbumin antibody titer [2, 7]: 4300 ± 150; Adjuvant index [2, 8]: 7.3 ± 0.08; Anti-ovalbumin antibody titer [2, 8]: 43500 ± 400; Adjuvant index [2, 9]: 7.55 ± 0.06; Anti-ovalbumin antibody titer [2, 9]: 19000 ± 200; Adjuvant index [2, 10]: 2.6 ± 0.05; Anti-ovalbumin antibody titer [2, 10]: 15700 ± 280; Adjuvant index [2, 11]: 0.8 ± 0.008; Anti-ovalbumin antibody titer [2, 11]: 2000 ± 20; Adjuvant index [2, 12]: 0.9 ± 0.03; Anti-ovalbumin antibody titer [2, 12]: 5400 ± 200; adjuvant dose at which antibody titer peaked ([2]; first immunization with 5-10 μg of OVA): 1 μg/mouse; adjuvant activity (in words) ([2]; ovalbumin in mice): strongly enhanced antibody response; anti-ovalbumin antibody titer relative to the titer of control serum ([2]; under optimal conditions): 6.5-7.5 times; anti-polysaccharide antibody titer (in words) [3]: increased considerably; increase in Ia-positive cell number [4]: 10%; protection from E. coli infection (in words) [5]: substantial protection; also recorded: substantial anti-infective mode of action
